Data from patent publication US11730743B2, “Protection of cells from degeneration and treatment of geographic atrophy” (University of Kentucky Research Foundation, priority 2012, dated 2023).

How the values were obtained:
Dicer1f/f mice = assay: RPE degeneration induced by subretinal AAV1-BEST1-Cre (DICER1 loss); type: in vivo; details: inhibitor intravitreous
Description: Immunolabeling. Human eyes fixed in 2-4% paraformaldehyde were prepared as eyecups, cryoprotected in 30% sucrose, embedded in optimal cutting temperature compound (Tissue-Tek OCT; Sakura Finetek), and cryosectioned into 10 μm sections. Depigmentation was achieved using 0.25% potassium permanganate and 0.1% oxalic acid. Immunohistochemical staining was performed with the rabbit antibody against NLRP3 (1:100, Sigma Aldrich) or rabbit antibody against Caspase-1 (prediluted, AbCam). Isotype IgG was substituted for the primary antibody to assess the specificity of the staining. Bound antibody was detected with biotin-conjugated secondary antibodies, followed by incubation with ABC reagent and visualized by Vector Blue (Vector Laboratories). Levamisole (Vector Laboratories) was used to block endogenous alkaline phosphatase activity. Slides were washed in PBS, counterstained with neutral red (Fisher Scientific), rinsed with deionized water, air dried, and then mounted in Vectamount (Vector Laboratories). Fluorescent labeling of human tissue was performed with the rabbit antibody against PYCARD (1:50, Clone N-15, Santa Cruz Biotechnology). Immunolabeling was visualized by fluorescently conjugated anti-rabbit secondary antibody (Invitrogen). Tissue autofluorescence was quenched by incubating the sections in 0.3% Sudan black (Fisher Scientific). […]

human RPE cells = system: human RPE cells
Description: Cell viability. Cell viability measurements were performed using the CellTiter 96 AQueous One Solution Cell Proliferation Assay (Promega) in according to the manufacturer's instructions.
Cell culture. All cell cultures were maintained at 37° C. and 5% CO2. Primary mouse RPE cells were isolated as previously described (Yang et al., 2009) and grown in Dulbecco Modified Eagle Medium (DMEM) supplemented with 20% FBS and standard antibiotics concentrations. Primary human RPE cells were isolated as previously described (Yang et al., 2008) and maintained in DMEM supplemented with 10% FBS and antibiotics. HeLa cells were maintained in DMEM supplemented with 20% FBS and standard antibiotics concentrations. THP-1 cells were cultured in RPMI 1640 medium supplemented with 10% FBS and antibiotics.
Transient transfection. Human or mouse RPE cells were transfected with pUC19, pAlu, pCDNA3.1/Dicer-FLAG, pCDNA3.1, Alu RNA, NLRP3 siRNA sense, PYCARD siRNA sense, MyD88 siRNA sense, DICER1 antisense oligonucleotide (AS), control (for DICER1) AS, Alu AS, and control (for Alu) AS using Lipofectamine 2000 (Invitrogen) according to the manufacturer's instructions.
Cell viability. MTS assays were performed using the CellTiter 96 AQueous One Solution Cell Proliferation Assay (Promega) according to the manufacturer's instructions. For examining the cytoprotective effect of glycine in Alu RNA induced cell death, human RPE cells were transfected with pNull/pAlu. At 6 h post-transfection the cells were incubated with complete media containing glycine (5 mM) or vehicle, and cell viability was assessed after 24 h. Similarly, human RPE cells primed with LPS (5 μg/ml for 6 h) were treated with ATP (25 μM) in the presence of glycine containing media (5 mM). 30 min post ATP cell viability was assessed as described above.

Caspase-3 = Caspase-3 activation in the RPE of wild-type mice; type: in vivo; details: inhibitor intravitreous
Description: Drug treatments. siRNAs formulated in siRNA buffer (20 mM KCL, 0.2 mM MgCl2 in HEPES buffer at pH 7.5; Dharmacon) or phosphate buffered saline (PBS; Sigma-Aldrich); the TLR4 antagonist Ultra Pure Rhodobacter sphaeroides LPS (LPS-RS, InvivoGen), a peptide inhibitor of MyD88 homodimerization IMG-2005 (IMGENEX), control inhibitor (IMGENEX), recombinant IL-18 (Medical & Biological Laboratories), neutralizing rat antibodies against mouse IL-1β (IMGENEX), neutralizing rat antibodies against mouse IL-18 (Medical & Biological Laboratories), isotype control IgGs (R&D Systems or eBioscience as appropriate), Caspase-1 inhibitor Z-WEHD-FMK (R&D Systems), Caspase-3 inhibitor Z-DEVD-FMK (R&D Systems), Caspase control inhibitor Z-FA-FMK (R&D Systems), (2R,4R)-APDC (Enzo Life Sciences), Glipizide (Sigma-Aldrich), Glyburide (Sigma-Aldrich), and P2X7 receptor antagonist A438079 (Tocris Bioscience) were dissolved in phosphate buffered saline (PBS; Sigma-Aldrich) or dimethyl sulfoxide (DMSO; Sigma-Aldrich), and injected into the vitreous humor in a total volume of 1 μL with a 33-gauge Exmire microsyringe (Ito Corporation). […] As a control, Luc siRNA-chol (17+2 nt) was used with identical dosages.
Caspase-3 activity. The caspase-3 activity was measured using Caspase-3 Fluorimetric Assay (R&D Systems) according to the manufacturer's instruction.

Substance: MyD88 inhibitory peptide: peptide inhibitor of MyD88 homodimerization IMG-2005 (IMGENEX)
- AAV1-BEST1-Cre-induced RPE degeneration (Dicer1f/f mice): blocked
- cell death in human RPE cells treated with antisense oligonucleotides targeting DICER1 (human RPE cells; DICER1 AS): prevented cell death
- pAlu-induced human RPE cell death (loss of cell viability) (human RPE cells; human RPE cells transfected with pAlu): inhibited cell death
- Alu RNA-induced Caspase-3 activation in the RPE (Caspase-3): inhibited
